Data set [1] has as its system ryegrass biotype 1252.2 (with trifluralin resistance). Nature of the data set: Pre-emergence (simulated IBS) pot test, % survival of ryegrass biotype 1252.2. In kind it is in vivo. The following applies: 5 weeks after herbicide application. As for the experimental part: (§1) Five ryegrass biotypes with varying degrees of resistance to trifluralin (1251, 1216.1, 1252.6, 1252.2 and 1145.4) and two non-resistant biotypes (SLR4 and 1261.1) were tested. Dithiopyr was applied using a simulated incorporated by sowing (IBS) system for ryegrass and wheat.
(§2) Ryegrass: A set volume of seeds (50 seeds approx) were placed onto the surface of sandy potting soil in 0.55 L polyethylene pots. Dithiopyr was sprayed directly onto the ryegrass seed soil surface at rates of 250, 500 and 1000 grams active ingredient per hectare (g ai/ha). The seed and soil were then covered with a soil mixture to a depth of 5 mm (the soil mixture included 385 L peatmoss, 615 L coarse sand, 1024 g Ag. lime, 564 g hydrated lime, and 3.7 Kg Osmocote® Exact™ (Everris International B.V.; Geldermalsen, The Netherlands) with a pH of 6.3).
(§3) Herbicide application was performed using a laboratory boom sprayer equipped with T-jet fan nozzles at a speed of 1 ms^−1. Output from the sprayer was calibrated at 110 L ha^−1 at a pressure of 250 kPa. Using this testing procedure, volatilization losses were minimized by the immediate and even incorporation of each herbicide. The experiment was established as a randomized block design with three replications and was conducted outdoors during mid winter (July-August).
(§4) Herbicide effects on wheat and ryegrass seedlings were measured 5 weeks after spraying. Seedlings were considered emerged if they had reached the 2-leaf stage at this time. Survival % was recorded by comparing the surviving number of 2-3 leaved seedlings in the sprayed treatments to the […] (Tables 1 and 2).

The subject of data set [2] is ryegrass biotype 1216.1 (with trifluralin resistance). Nature of the data set: Pre-emergence (simulated IBS) pot test, % survival of ryegrass biotype 1216.1. In kind it is in vivo. The following applies: 5 weeks after herbicide application. As for the experimental part:
as §1, §2, §3, §4

Data set [3] concerns ryegrass biotype 1261.1 (without trifluralin resistance). Nature of the data set: Pre-emergence (simulated IBS) pot test, % survival of ryegrass biotype 1261.1. In kind it is in vivo. The note with it: 5 weeks after herbicide application. As for the experimental part:
as §1, §2, §3, §4

For a further data set, the system named is Correll wheat. Nature of the data set: Crop safety on wheat, pre-emergence (simulated IBS) pot test, % dry weight and % survival. The following applies: 5 weeks after application. In kind it is in vivo, wheat (var. Correll). Here is the method: as §1
Wheat: Ten wheat seeds (var. Correll) were buried 1 cm deep. The herbicides were sprayed onto the soil surface and then the herbicide covered with another 5 mm of soil. This system of seed separation ensured crop selectivity
as §3, §4
In addition, wheat biomass was recorded by harvesting the plants and measuring dry weight to indicate crop safety. The dry weights from the treated plants were compared to the weight of untreated wheat and the percentage biomass calculated (Table 2).

Data set [4] deals with ryegrass biotype 1252.6 (with trifluralin resistance). Nature of the data set: Pre-emergence (simulated IBS) pot test, % survival of ryegrass biotype 1252.6. In kind it is in vivo. The note with it: 5 weeks after herbicide application. As for the experimental part:
as §1, §2, §3, §4

Data set [5] deals with ryegrass biotype 1251 (with trifluralin resistance). Nature of the data set: Pre-emergence (simulated IBS) pot test, % survival of ryegrass biotype 1251. In kind it is in vivo. The following applies: 5 weeks after herbicide application. Here is the method:
as §1, §2, §3, §4

For data set [6], the system named is ryegrass biotype 1145.4 (with trifluralin resistance). Nature of the data set: Pre-emergence (simulated IBS) pot test, % survival of ryegrass biotype 1145.4. In kind it is in vivo. The note with it: 5 weeks after herbicide application. As for the experimental part: as §1, §2, §3, §4
The test system of data set [7] is ryegrass biotype SLR4 (without trifluralin resistance). Nature of the data set: Pre-emergence (simulated IBS) pot test, % survival of ryegrass biotype SLR4. In kind it is in vivo. The note with it: 5 weeks after herbicide application. Here is the method:
as §1, §2, §3, §4

The text below walks through data of patent US8912125B2, “Control of trifluralin-resistant weeds with dithiopyr” (Dow AgroSciences, LLC., priority 2010, dated 2014).

As for `CSC(=O)c1c(C(F)F)nc(C(F)(F)F)c(C(=O)SC)c1CC(C)C` [Dithiopyr, S,S′-dimethyl 2-(difluoromethyl)-4-(2-methylpropyl)-6-(trifluoromethyl)-3,5-pyridinedicarbothioate], the “% survival of ryegrass, Mean” value in data set [1] (250 g ai/ha), in data set [1] (500 g ai/ha), in data set [1] (1000 g ai/ha), in data set [2] (250 g ai/ha), in data set [2] (500 g ai/ha) and in data set [2] (1000 g ai/ha) was 0% throughout. Also, the “% survival of ryegrass, Mean” value in data set [3] (250 g ai/ha), in data set [3] (500 g ai/ha), in data set [3] (1000 g ai/ha), in data set [4] (250 g ai/ha), in data set [4] (500 g ai/ha) and in data set [4] (1000 g ai/ha) was 0% throughout. The “% survival of ryegrass, Mean” value in data set [5] (250 g ai/ha), in data set [5] (500 g ai/ha), in data set [5] (1000 g ai/ha), in data set [6] (250 g ai/ha), in data set [6] (500 g ai/ha) and in data set [6] (1000 g ai/ha) was 0% throughout. The “% survival of ryegrass, Mean” value in data set [7] (250 g ai/ha), in data set [7] (500 g ai/ha) and in data set [7] (1000 g ai/ha) was 0% throughout. For the same molecule, the “Survival (%) Mean” value is listed as 82.2% in the data set on Correll wheat (250 g ai/ha), 60.0% in the data set on Correll wheat (500 g ai/ha) and 28.9% in the data set on Correll wheat (1000 g ai/ha).

Consider `CCCN(CCC)c1c([N+](=O)[O-])cc(C(F)(F)F)cc1[N+](=O)[O-]` [Trifluralin, 2,6-dinitro-N,N-dipropyl-4-(trifluoromethyl)benzenamine], for which the “% survival of ryegrass, Mean” value in data set [1] (250 g ai/ha) was 29.1%; in data set [1] (500 g ai/ha), 13.9%; in data set [1] (1000 g ai/ha) it was 3.8%; in data set [2] (250 g ai/ha) it was 40.4%; in data set [2] (500 g ai/ha) it was 19.1%; in data set [2] (1000 g ai/ha), 9%. The “% survival of ryegrass, Mean” value is given as 5.6% in data set [3] (250 g ai/ha); 0% in data set [3] (500 g ai/ha); 1.1% in data set [3] (1000 g ai/ha); 33.8% in data set [4] (250 g ai/ha); 13.1% in data set [4] (500 g ai/ha); 26.3% in data set [4] (1000 g ai/ha). Moreover, the “% survival of ryegrass, Mean” value in data set [5] (250 g ai/ha) is on record as 97.7%; in data set [5] (500 g ai/ha) it was 68.2%; in data set [5] (1000 g ai/ha), 27.3%; in data set [6] (250 g ai/ha), 100%; in data set [6] (500 g ai/ha), 100%; in data set [6] (1000 g ai/ha), 14.1%. Also, the figures for the “% survival of ryegrass, Mean” value in data set [7] (250 g ai/ha), in data set [7] (500 g ai/ha) and in data set [7] (1000 g ai/ha) were 2.9%, 0% and 0%, respectively.
